Key:
[1] = system: iPSC-derived AD neurons; assay: Dual immunofluorescence in iPSC-derived AD neurons (A246E psen1); format: cell-based, human
Method: Primary neuronal cell culture was performed based on a protocol approved by the Institutional Animal Care and Use Committee (IACUC) of the University of Wisconsin-Milwaukee, Milwaukee, WI-53211, and by the guidelines set by the National Institute of Health. Embryonic day 18 (E18) fetuses were harvested, and hippocampal tissue was dissected from brains and then processed for single cell culture in poly-D-lysine-coated plates, as discussed elsewhere. Neuronal cells were maintained with B-27^TM-plus-supplemented complete neurobasal media for 7–10 days until fully differentiated. After that, the treatment with JRM-28 was performed. SHSY5Y cells were grown, maintained, and passaged with complete DMEM media (a bottle of DMEM supplemented with 10% FBS, 2 mM L-glutamine, and 100 units/mL antibiotics); otherwise, for neuronal differentiation study, SHSY5Y was seeded with complete neurobasal medium. For making AD neurons, commercially purchased (Axol Bioscience Ltd.) A246E psen1 neural stem cells (NSCs) were maintained with KnockOut^TM DMEM/F12 media supplemented with StemPro^TM Neural Supplement, bFGF, EGF, 2 mM GlutMAX^TM supplement, and 10 mL/L antibiotic-antimycotic solution. These […] NSCs were grown in a […] cell culture flask coated with Geltrex^TM matrix until fully confluent and then detached by Accutase, centrifuged, washed, and plated in a poly-D-lysine-coated plate supplemented with complete neurobasal media for neuronal differentiation. After one week, when neurons were differentiated, JRM-28 treatment was conducted.
Immunofluorescence analysis was performed as described earlier. Briefly, cells cultured on coverslip contained in six-well plates (Lab-Tek II) were fixed with 4% paraformaldehyde for 20 min followed by two rinses in TBST. Samples were incubated in a 1:1 solution of TBST and blocking buffer containing rabbit anti-NR2A (1:250), anti-GluR1 (1:250), ant-HDAC2 (1:250), anti-CREB (1:250), and anti-MAP2 (1:250) for 2 h at 37 °C. After three washes in PBST (15 min each), slides were further incubated with FIT-C and TRIT-C-conjugated secondary antibodies. For negative controls, a set of culture slides was incubated under similar conditions with secondary antibodies and without the primary antibodies (Table 3). The samples were mounted and observed under an Accuscope fluorescent microscope. The images were captured and merged in CaptaVision^TM imaging software.

[2] = biological target: T1, HDAC3 (Homo sapiens, UniProt O15379); assay: Fluorimetric HDAC inhibition assay, HDAC3; format: biochemical; details: reduced with DTT
T1 construct: purchased BPS Bioscience 50003
Method: The inhibition of HDAC1, 2, 3, and 6 by JRM-28 was fluorometrically measured using the HDAC Fluorogenic Assay Kit (Catalog# 50034) by BPS bioscience. Purified recombinant human HDAC1 (Cat# 50051), HDAC3 (Cat# 50003), and HDAC6 (Cat# 50056) were also obtained from BPS Bioscience. The enzyme inhibition assay was performed according to the manufacturer’s protocol. […] Purified recombinant HDAC2 (supplied with the fluorogenic kit) was diluted to 6 ng/µL (5 µL/well with the supplied HDAC assay buffer). HDAC 1, 3, and 6 were also diluted to the optimized concentration (5 µL/well) with the HDAC assay buffer. The activity of JRM-28 was measured along with DTT control and DMSO as blank. After adding 5 µL of the diluted HDAC enzymes in designated wells, the 96-well plate (supplied with the kit) was incubated at 37 °C. Then, the reaction was initiated by adding 5 µL of diluted HDAC substrate to each well, followed by another incubation at 37 °C for 30 min. Next, 50 µL of the developer reagent was added to each well and incubated at room temperature for another 15 min. Finally, fluorescence was measured by a microplate absorbance spectrophotometer (PerkinElmer Enspire 2300 Multilabel Multimode Microplate Reader) with an excitation at λ = 485 nm and detection at λ = 528 nm.

[3] = biological target: HDAC2 (Homo sapiens, UniProt Q92769); assay: Endogenous HDAC2 activity assay (luminescence) in SHSY5Y cells; format: cell-based; design: endogenous in cells; host or cells: SHSY5Y; details: not reduced by DTT; 30 min of treatment
Method: Next, JRM-28 in the presence of DTT was evaluated by cytotoxicity assays. A TUNEL assay was performed with SHSY5Y neuronal cells using increasing concentrations of JRM-28 in the presence of DTT. […] The results were further confirmed by quantitative analysis (Figure 4B). […] Next, we wanted to study the effect of lower concentrations of […] on the regulation of HDAC2 activity. […] To further confirm this finding, we performed a luminescence-based HDAC2 activity assay in SHSY5Y cells with increasing doses of JRM-28. JRM-28 was not reduced by DTT during the treatment, as the cellular reductase and oxidoreductase enzymes are expected to reduce JRM-28 in its “active 28a/b” components. […]
Figure 4 Exploring the cytotoxicity of JRM-28. SHSY5Y neurons were treated with different doses of JRM-28 for 24 h and then analyzed for different cytotoxicity assays. […] TUNEL^+ve cells were detected as condensed brown bodies, whereas nuclei were stained with hematoxylin (blue). (B) TUNEL bodies were counted per 10 randomly selected cells in 20 different images. Results were plotted as a dotted boxplot, and the significance of the mean was analyzed by one-way ANOVA (single effector = treatment). **** p < 0.00001 versus DMSO control. […] (E) The band density of individual HDAC2 bands was assessed in ImageJ software (version 1.45) followed by normalization with respective β-actin band density. […]

T1 sequence (O15379 whole entry): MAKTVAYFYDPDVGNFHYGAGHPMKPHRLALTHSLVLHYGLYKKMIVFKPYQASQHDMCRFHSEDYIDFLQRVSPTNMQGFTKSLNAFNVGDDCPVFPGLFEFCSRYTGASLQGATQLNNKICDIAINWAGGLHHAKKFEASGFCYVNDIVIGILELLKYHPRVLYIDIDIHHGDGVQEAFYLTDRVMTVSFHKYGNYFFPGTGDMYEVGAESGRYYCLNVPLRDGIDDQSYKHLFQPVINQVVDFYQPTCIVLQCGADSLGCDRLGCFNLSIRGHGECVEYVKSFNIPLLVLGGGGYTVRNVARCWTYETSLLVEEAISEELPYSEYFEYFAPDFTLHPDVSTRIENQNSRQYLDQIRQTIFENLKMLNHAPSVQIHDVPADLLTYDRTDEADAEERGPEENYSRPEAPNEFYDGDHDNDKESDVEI
T1 sequence (Q9Y618 395-489 partner limits assumed): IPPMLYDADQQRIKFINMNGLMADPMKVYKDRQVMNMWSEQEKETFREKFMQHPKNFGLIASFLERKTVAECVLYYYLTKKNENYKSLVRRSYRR
HDAC2, sequence (Q92769 whole entry): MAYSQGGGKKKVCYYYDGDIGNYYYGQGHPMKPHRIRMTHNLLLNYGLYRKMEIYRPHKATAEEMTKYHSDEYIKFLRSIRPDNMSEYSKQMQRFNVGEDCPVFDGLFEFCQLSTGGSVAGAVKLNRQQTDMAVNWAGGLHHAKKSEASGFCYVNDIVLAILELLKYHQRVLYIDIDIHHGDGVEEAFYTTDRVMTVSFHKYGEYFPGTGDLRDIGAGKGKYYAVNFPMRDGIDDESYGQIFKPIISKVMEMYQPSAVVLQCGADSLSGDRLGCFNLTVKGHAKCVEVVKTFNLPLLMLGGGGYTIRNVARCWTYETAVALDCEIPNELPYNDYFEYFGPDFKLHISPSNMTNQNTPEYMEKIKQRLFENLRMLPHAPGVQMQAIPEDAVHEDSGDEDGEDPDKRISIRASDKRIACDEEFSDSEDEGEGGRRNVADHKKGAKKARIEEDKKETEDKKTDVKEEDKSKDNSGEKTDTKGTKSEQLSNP

IC50 [2]: 279 nM
Hill coefficient HDAC3 (fluorimetric) ([2]; listed as JRM-28 (JRM-28a+28b)): −4.663
IC50 [3]: 5440 nM
SMILES: CN(C(=O)CC(O)/C=C/CCSS(=O)(=O)CC/C=C/C(O)CC(=O)N(C)c1ccccc1)c1ccccc1 (stereo not drawn) [JRM-28, S-((E)-5-hydroxy-7-(methyl(phenyl)amino)-7-oxohept-3-en-1-yl) (E)-5-hydroxy-7-(methyl(phenyl)amino)-7-oxohept-3-ene-1-sulfonothioate]
expressions of ionotropic glutamate receptors (NR2A, GluR1) ([1]; 5 µM): augmented the expressions of ionotropic glutamate receptors
length of MAP2-ir basal dendrites ([1]; 5 µM): increase the length of MAP2-ir basal dendrites
CREB expression (dual IF) ([1]; 5 μM, 24 h (legend: 48 h)): strong upregulation of CREB
HDAC2 expression (dual IF) ([1]; 5 μM, 24 h (legend: 48 h)): significant downregulation of HDAC2
